According to the METLIN SMRT retention time set (Domingo-Almenara et al. 2019):

Assay: gradient 5% acetonitrile 3 min, to 50% in 2 min, to 85% in 15 min, held 3 min, 100 µL/min
Details: column: Zorbax Extend-C18 2.1 x 50 mm; eluents: water / acetonitrile, 0.1% formic acid
In short: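 A Zorbax Extend-C18 column (2.1 × 50 mm, 1.8 μm) run at 100 μL/min with water and acetonitrile, both containing 0.1% formic acid, separated mixtures of ~100 pure standards. The HPLC was coupled to a quadrupole time-of-flight mass spectrometer operated in positive and negative ionization mode, with dead and dwell volumes of 40 μL and 900 μL. Each retention time was taken from a computationally picked adduct peak that was then manually inspected.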

Row | RP-LC retention time | Structure (SMILES)
1 | 646 s | CCc1ccccc1NC(=O)Cn1cnc2nc(N3CCCC(C(=O)NC)C3)sc2c1=O (stereo not drawn)
2 | 659 s | CC(C)COc1cc(=O)n2c(c1C(=O)NCCCn1cccn1)CCCCC2
3 | 850 s | O=C(Nc1cnn(-c2ncc(N3CCCC3)cn2)c1)Nc1ccccc1C(F)(F)F
4 | 1150 s | COc1ccccc1-c1nnc(-c2ccc(Cl)c(S(=O)(=O)N3CCCCCC3)c2)o1
5 | 556 s | COc1nccnc1N1CCC(NC(=O)Cc2cccnc2)C1 (stereo not drawn)
6 | 619 s | COc1ccccc1N1CCN(c2cc(C(=O)O)c3cc(NS(C)(=O)=O)ccc3n2)CC1
7 | 577 s | O=C(NCc1ccc2c(c1)OCO2)C1CCN(CCc2c[nH]c3ncccc23)CC1
8 | 720 s | O=C(NC1CCN(Cc2ccccc2)CC1)C1CCCN(c2ncc(-c3ccccc3)cn2)C1 (stereo not drawn)
9 | 817 s | Cc1cc2c(=O)n(CC(=O)Nc3cc(F)ccc3F)ccc2s1
10 | 608 s | Fc1ccc(CN2CCc3nc(N4CCOCC4)ncc3C2)cc1
11 | 661 s | COc1ccc(-c2nc3cnccn3c2Nc2ccc(C(=O)NC(C)C)cc2)cc1OC
12 | 700 s | Cc1nnc(NC(=O)CSc2nnc(-c3ccccc3F)o2)s1
13 | 918 s | CCc1cccc(NC(=O)Cc2nnc3cc(-c4nc(C(C)C)no4)ccn23)c1
14 | 676 s | COCCNC(=O)N1CCCN(C2=NS(=O)(=O)C(c3ccccc3)=C2C)CC1
15 | 994 s | COCCCn1c(=O)c2ccccc2n(Cc2nc(-c3ccccc3)no2)c1=O
16 | 760 s | O=C(NCc1ccccn1)c1nnn(Cc2ccc(Cl)cc2)c1-n1cccc1
17 | 1040 s | CCc1ccccc1NC(=O)CSc1cc(N2CCN(c3ccccc3OC)CC2)ncn1

Row | RP-LC retention time | Structure (SMILES)
18 | 635 s | O=C(Cc1nc(-c2ccccn2)n[nH]1)Nc1cccc(F)c1
19 | 758 s | COCCC1CCN(C(=O)c2cc(-c3ccccc3)n[nH]2)CC1
20 | 973 s | Cc1ccccc1CNC(=O)c1cn(-c2ccc(-c3nc(C4CC4)no3)cn2)cn1
21 | 970 s | Cc1cc(N2CCN(S(=O)(=O)c3ccc(-c4ccccc4)cc3)CC2)nc(NC2CCCCC2)n1
22 | 746 s | CN1CCCc2cc(C(CNC(=O)C(=O)NCc3ccccc3)N3CCCCC3)ccc21 (stereo not drawn)
23 | 832 s | c1ccc(CNc2cc(-n3cccn3)ncn2)cc1
24 | 880 s | COc1cc(=O)n(-c2ccccc2C)nc1C(=O)Nc1ccc(OC(F)(F)F)cc1
25 | 1090 s | Fc1ccc(-c2nc(-c3cn(Cc4ccccc4)nn3)no2)cc1
26 | 859 s | CC(C)CCNC(=O)CCCn1c(=O)c2cccn2c2ccccc21
27 | 1010 s | Cc1ccc(Cn2nnc(C(=O)NCc3ccco3)c2-n2cccc2)cc1
28 | 995 s | O=c1ccn(-c2cccc(F)c2)nc1-c1nc(-c2cccc(Br)c2)no1
29 | 722 s | CCOc1ccc(Nc2nc(-c3c(C)nc4ccccn34)cs2)cc1
30 | 558 s | Cc1nnc(N2CCCC(C(=O)NCCCN3CCCC3)C2)c2nn(-c3ccccc3)c(C)c12 (stereo not drawn)
31 | 823 s | CN1c2cc(C(=O)N3CCN(c4ccccc4)CC3)ccc2C(=O)N2CCCCC21 (stereo not drawn)
32 | 983 s | COc1ccc(S(=O)(=O)N2CCc3nc(-c4ccc(F)cc4)ncc3C2)cc1OC
33 | 591 s | O=C(Nc1cccnc1)C1CCN(S(=O)(=O)c2cccnc2)CC1

The remaining lines, values behind:

Row | Structure (SMILES) | RP-LC retention time
34 | COc1ccc(-c2nc(C)c3c(n2)N(C(C)C)C(=O)C3)cc1 | 929 s
35 | CS(=O)(=O)N1CCCc2cc(C(=O)NCc3ccc4c(c3)OCO4)ccc21 | 779 s
36 | CC(C)CC(=O)N1CCCC(c2nc(CCNC(=O)C3CCC3)cs2)C1 (stereo not drawn) | 734 s
37 | COc1ccc(N2CCN(CC(O)c3cccc(OC)c3)CC2)cc1 (stereo not drawn) | 657 s
38 | O=C(Nc1cnc(N2CCCCCC2)nc1)C1CCCC1 | 844 s
39 | CC(C)c1nc2cccnc2n1CCN1CCN(C(=O)Nc2ccc(Br)cc2F)CC1 | 632 s
40 | CCCNC(=O)C1CCCN(c2nc3ncn(CC(=O)Nc4ccc(OCC)cc4)c(=O)c3s2)C1 (stereo not drawn) | 720 s
41 | CN(C)S(=O)(=O)c1ccc2c(c1)N(CC(=O)NCCC1=CCCCC1)C(=O)C1CCCCN21 (stereo not drawn) | 996 s
42 | CS(=O)(=O)N1CCC(C(=O)NCc2ccsc2)CC1 | 616 s
43 | CCCn1ccc2sc(C)c(C(=O)N3CCN(C4CCCCC4)CC3)c2c1=O | 606 s
44 | O=C(c1ccoc1)N1CCC(N2CC(F)(F)C[C@H]2CO)CC1 | 539 s
45 | COc1ccc2[nH]c(=O)c(CCC(=O)NCCCOC(C)C)cc2c1 | 649 s
46 | CC(=O)N1CCc2cc(N3CC(C(=O)Nc4ccc(C)cc4Cl)CC3=O)ccc21 (stereo not drawn) | 735 s
47 | Cc1ccc(-c2[nH]c3[nH]c(=O)[nH]c(=O)c3c2C2C(=O)N(C)c3ccccc32)cc1 (stereo not drawn) | 696 s
48 | Cc1cc2nn(CC(=O)N3CCCC3)c(=O)n2c(Nc2ccc(C)c(F)c2)n1 | 922 s
49 | O=C(c1ccc2c(c1)OCO2)N1CCN(c2ncnc3c2CCC3)CC1 | 588 s
50 | CCc1noc(NC(C)=O)c1-c1ccc(OC)c(S(=O)(=O)N2CCC3(CC2)OCCO3)c1 | 714 s
51 | COC(=O)C1=C(NC(=O)c2cccc(F)c2)CCS1 | 964 s

Row | Structure (SMILES) | RP-LC retention time
52 | CC(C)NC(=O)c1ccc(OCC2CCCN(C(=O)Cc3ccc(Cl)cc3)C2)cc1 (stereo not drawn) | 918 s
53 | O=C(Cc1ccc(F)cc1)N1CCN(c2nc(CN3CCOCC3)cs2)CC1 | 616 s
54 | CCc1ccc(NC(=O)c2cc(=O)n(C)c3c2c(=O)n(C)c(=O)n3C)cc1 | 870 s
55 | Cc1cc(-n2cc(C(=O)N3CCC(NC(=O)Cc4cccs4)CC3)nn2)ccc1F | 746 s
56 | COc1ccc(S(=O)(=O)N2CCCC(C(=O)Nc3ccc4c(c3)OCO4)C2)cc1OC (stereo not drawn) | 838 s
57 | CCn1cc(-c2ccc(C)cc2)cc1C(=O)NCC1CCCO1 (stereo not drawn) | 614 s
58 | O=C(NC1(c2nc(-c3cccnc3)no2)CCCCC1)c1ccc(F)c(F)c1 | 963 s
59 | CC(C)CN1N=C(C(=O)N2CCOCC2)S(=O)(=O)c2ccc(Cl)cc21 | 813 s
60 | Cc1nnc2cc(N3CCN(S(=O)(=O)c4ccc(Br)cc4)CC3)cnn12 | 740 s
61 | Cn1nc2c(c1NC(=O)c1ccc([N+](=O)[O-])s1)CCC2 | 698 s
62 | CCOC(=O)C1CCc2sc(NC(=O)Cc3noc4ccccc34)nc21 (stereo not drawn) | 818 s
63 | CCCCN(C)S(=O)(=O)c1cc(-c2nnc(C)o2)co1 | 821 s
64 | O=C1NC2CCCCC2=C1CC(=O)N1CCCCC1 (stereo not drawn) | 633 s
65 | CN(CC1CCOCC1)C(=O)c1ccc(Br)cc1 | 761 s
66 | CCC(C)NC(=O)N1c2cccnc2N(C(C)C)C(=O)C1C (stereo not drawn) | 850 s
67 | CCn1ccc2c(cc(C(=O)Nc3cc(OC)c(OC)c(OC)c3)n2C)c1=O | 715 s
68 | Cc1ccc(N2CC(C(=O)N3CCC(NS(=O)(=O)c4ccc(C)cc4)CC3)CC2=O)cc1 (stereo not drawn) | 826 s
